Test results reported in ChEMBL document CHEMBL4219190, “Studies on synthesis of novel pyrido[2,3-d]pyrimidine derivatives, evaluation of their antimicrobial activity and molecular docking” (Bioorg Med Chem Lett, 2018).
Converted amounts (≈) assume the structure as drawn. Blank lines part the entries; values can stand above or below the compound they belong to. The source made the active and inactive calls. The calls are words filed in the database; no cut-off is given here.

Tests used:
Staphylococcus aureus [1] = assay: Antibacterial activity against Staphylococcus aureus MTCC 96 after 24 hrs by well diffusion method; format: functional
Candida albicans [2] = assay: Antifungal activity against Candida albicans MTCC 3017 after 24 hrs by well diffusion method; format: functional; conditions: MTCC 3017, 24 h
Candida albicans [3] = assay: Antifungal activity against Candida albicans MTCC 1637 after 24 hrs by well diffusion method; format: functional
Candida albicans [4] = assay: Fungicidal activity against Candida albicans MTCC 3018 incubated for 24 hrs followed by transfer of microbial suspension to Sabouraud dextrose agar plates and measured after 24 hrs post transfer; format: functional; conditions: MTCC 3018, 24 h
Staphylococcus aureus [5] = assay: Bactericidal activity against Staphylococcus aureus MLS16 MTCC 2940 incubated for 24 hrs followed by transfer of microbial suspension to Mueller Hinton agar plates and measured after 24 hrs post transfer; format: functional
[Candida] aaseri [6] = Fungicidal activity against Candida aaseri MTCC 1962 incubated for 24 hrs followed by transfer of microbial suspension to Sabouraud dextrose agar plates and measured after 24 hrs post transfer; format: functional; conditions: Yamadazyma aaseri, MTCC 1962, 24 h
Candida albicans [7] = assay: Antifungal activity against Candida albicans MTCC 183 after 24 hrs by well diffusion method; format: functional; conditions: MTCC 183, 24 h
Candida albicans [8] = assay: Fungicidal activity against Candida albicans MTCC 3958 incubated for 24 hrs followed by transfer of microbial suspension to Sabouraud dextrose agar plates and measured after 24 hrs post transfer; format: functional; conditions: MTCC 3958, 24 h
Pichia kudriavzevii [9] = assay: Antifungal activity against Candida krusei MTCC 3020 after 24 hrs by well diffusion method; format: functional
Staphylococcus aureus [10] = assay: Antibacterial activity against Staphylococcus aureus MLS16 MTCC 2940 after 24 hrs by well diffusion method; format: functional
Staphylococcus aureus [11] = assay: Bactericidal activity against Staphylococcus aureus MTCC 96 incubated for 24 hrs followed by transfer of microbial suspension to Mueller Hinton agar plates and measured after 24 hrs post transfer; format: functional; conditions: MTCC 96, 24 h
Escherichia coli [12] = assay: Bactericidal activity against Escherichia coli MTCC 739 incubated for 24 hrs followed by transfer of microbial suspension to Mueller Hinton agar plates and measured after 24 hrs post transfer; format: functional
Nakaseomyces glabratus [13] = assay: Antifungal activity against Candida glabrata MTCC 3019 after 24 hrs by well diffusion method; format: functional; conditions: MTCC 3019, 24 h
Candida albicans [14] = assay: Antifungal activity against Candida albicans MTCC 4748 after 24 hrs by well diffusion method; format: functional; conditions: MTCC 4748, 24 h
Staphylococcus aureus [15] = assay: Antibiofilm activity against Staphylococcus aureus MLS16 MTCC 2940 after 24 hrs by crystal violet staining-based assay; format: functional, organism-based
Raoultella planticola [16] = assay: Bactericidal activity against Klebsiella planticola MTCC 530 incubated for 24 hrs followed by transfer of microbial suspension to Mueller Hinton agar plates and measured after 24 hrs post transfer; format: functional
Escherichia coli [17] = assay: Antibacterial activity against Escherichia coli MTCC 739 after 24 hrs by well diffusion method; format: functional
Staphylococcus aureus [18] = assay: Antibiofilm activity against Staphylococcus aureus MTCC 96 after 24 hrs by crystal violet staining-based assay; format: functional, organism-based; conditions: Staphylococcus aureus, MTCC 96, 24 h; read-out: IC50
Raoultella planticola [19] = assay: Antibacterial activity against Klebsiella planticola MTCC 530 after 24 hrs by well diffusion method; format: functional
Bacillus subtilis [20] = assay: Antibiofilm activity against Bacillus subtilis MTCC 121 after 24 hrs by crystal violet staining-based assay; format: functional, organism-based
Candida albicans [21] = assay: Fungicidal activity against Candida albicans MTCC 3017 incubated for 24 hrs followed by transfer of microbial suspension to Sabouraud dextrose agar plates and measured after 24 hrs post transfer; format: functional; conditions: MTCC 3017, 24 h
Candida albicans [22] = assay: Antifungal activity against Candida albicans MTCC 227 after 24 hrs by well diffusion method; format: functional
Candida albicans [23] = assay: Antifungal activity against Candida albicans MTCC 7315 after 24 hrs by well diffusion method; format: functional; conditions: MTCC 7315, 24 h
Pseudomonas aeruginosa [24] = assay: Antibiofilm activity against Pseudomonas aeruginosa MTCC 2453 after 24 hrs by crystal violet staining-based assay; format: functional, organism-based
Candida albicans [25] = assay: Antifungal activity against Candida albicans MTCC 3958 after 24 hrs by well diffusion method; format: functional; conditions: MTCC 3958, 24 h
Candida parapsilosis [26] = assay: Antifungal activity against Candida parapsilosis MTCC 1744 after 24 hrs by well diffusion method; format: functional
Raoultella planticola [27] = assay: Antibiofilm activity against Klebsiella planticola MTCC 530 after 24 hrs by crystal violet staining-based assay; format: functional, organism-based
Bacillus subtilis [28] = assay: Antibacterial activity against Bacillus subtilis MTCC 121 after 24 hrs by well diffusion method; format: functional
Candida albicans [29] = assay: Fungicidal activity against Candida albicans MTCC 227 incubated for 24 hrs followed by transfer of microbial suspension to Sabouraud dextrose agar plates and measured after 24 hrs post transfer; format: functional
Pseudomonas aeruginosa [30] = assay: Antibacterial activity against Pseudomonas aeruginosa MTCC 2453 after 24 hrs by well diffusion method; format: functional
Candida albicans [31] = assay: Fungicidal activity against Candida albicans MTCC 7315 incubated for 24 hrs followed by transfer of microbial suspension to Sabouraud dextrose agar plates and measured after 24 hrs post transfer; format: functional; conditions: MTCC 7315, 24 h
Pichia sporocuriosa [32] = assay: Antifungal activity against Issatchenkia hanoiensis MTCC 4755 after 24 hrs by well diffusion method; format: functional; conditions: MTCC 4755, 24 h
Candida albicans [33] = assay: Fungicidal activity against Candida albicans MTCC 4748 incubated for 24 hrs followed by transfer of microbial suspension to Sabouraud dextrose agar plates and measured after 24 hrs post transfer; format: functional; conditions: MTCC 4748, 24 h
Candida parapsilosis [34] = assay: Fungicidal activity against Candida parapsilosis MTCC 1744 incubated for 24 hrs followed by transfer of microbial suspension to Sabouraud dextrose agar plates and measured after 24 hrs post transfer; format: functional
[Candida] aaseri [35] = Antifungal activity against Candida aaseri MTCC 1962 after 24 hrs by well diffusion method; format: functional; conditions: Yamadazyma aaseri, MTCC 1962, 24 h
Candida albicans [36] = assay: Fungicidal activity against Candida albicans MTCC 1637 incubated for 24 hrs followed by transfer of microbial suspension to Sabouraud dextrose agar plates and measured after 24 hrs post transfer; format: functional
Nakaseomyces glabratus [37] = assay: Fungicidal activity against Candida glabrata MTCC 3019 incubated for 24 hrs followed by transfer of microbial suspension to Sabouraud dextrose agar plates and measured after 24 hrs post transfer; format: functional; conditions: MTCC 3019, 24 h
Candida albicans [38] = assay: Antifungal activity against Candida albicans MTCC 3018 after 24 hrs by well diffusion method; format: functional; conditions: MTCC 3018, 24 h
Pichia kudriavzevii [39] = assay: Fungicidal activity against Candida krusei MTCC 3020 incubated for 24 hrs followed by transfer of microbial suspension to Sabouraud dextrose agar plates and measured after 24 hrs post transfer; format: functional
Bacillus subtilis [40] = assay: Bactericidal activity against Bacillus subtilis MTCC 121 incubated for 24 hrs followed by transfer of microbial suspension to Mueller Hinton agar plates and measured after 24 hrs post transfer; format: functional
Candida albicans [41] = assay: Fungicidal activity against Candida albicans MTCC 183 incubated for 24 hrs followed by transfer of microbial suspension to Sabouraud dextrose agar plates and measured after 24 hrs post transfer; format: functional; conditions: MTCC 183, 24 h
Micrococcus luteus [42] = assay: Antibacterial activity against Micrococcus luteus MTCC 2470 after 24 hrs by well diffusion method; format: functional
Candida albicans [43] = assay: Fungicidal activity against Candida albicans MTCC 854 incubated for 24 hrs followed by transfer of microbial suspension to Sabouraud dextrose agar plates and measured after 24 hrs post transfer; format: functional
Micrococcus luteus [44] = assay: Bactericidal activity against Micrococcus luteus MTCC 2470 incubated for 24 hrs followed by transfer of microbial suspension to Mueller Hinton agar plates and measured after 24 hrs post transfer; format: functional
Pseudomonas aeruginosa [45] = assay: Bactericidal activity against Pseudomonas aeruginosa MTCC 2453 incubated for 24 hrs followed by transfer of microbial suspension to Mueller Hinton agar plates and measured after 24 hrs post transfer; format: functional
Candida albicans [46] = assay: Antifungal activity against Candida albicans MTCC 854 after 24 hrs by well diffusion method; format: functional
Pichia sporocuriosa [47] = assay: Fungicidal activity against Issatchenkia hanoiensis MTCC 4755 incubated for 24 hrs followed by transfer of microbial suspension to Sabouraud dextrose agar plates and measured after 24 hrs post transfer; format: functional; conditions: MTCC 4755, 24 h

MIC (Staphylococcus aureus [1]; MTCC 96, 24 h): 31.2 µg/mL (≈ 71.2 µM) | MIC (Candida albicans [2]): 31.2 µg/mL (≈ 71.2 µM) | MIC (Candida albicans [3]): inactive | MIC (Candida albicans [7]): 31.2 µg/mL (≈ 71.2 µM) | MIC (Pichia kudriavzevii [9]; MTCC 3020, 24 h): 31.2 µg/mL (≈ 71.2 µM) | MIC (Staphylococcus aureus [10]): inactive | MIC (Nakaseomyces glabratus [13]): 15.6 µg/mL (≈ 35.6 µM) | MIC (Candida albicans [14]): 62.5 µg/mL (≈ 143 µM) | IC50 (Staphylococcus aureus [15]): Not Active | MIC (Escherichia coli [17]): inactive | IC50 (Staphylococcus aureus [18]): 21.6 µg/mL (≈ 49.3 µM) | IC50 (Bacillus subtilis [20]): Not Active | MIC (Candida albicans [22]): inactive | MIC (Candida albicans [23]): 31.2 µg/mL (≈ 71.2 µM) | IC50 (Pseudomonas aeruginosa [24]): Not Active | MIC (Candida albicans [25]): 31.2 µg/mL (≈ 71.2 µM) | MIC (Candida parapsilosis [26]): inactive | MIC (Bacillus subtilis [28]): inactive | MIC (Pseudomonas aeruginosa [30]): inactive | MIC (Pichia sporocuriosa [32]): 15.6 µg/mL (≈ 35.6 µM) | MIC ([Candida] aaseri [35]): 31.2 µg/mL (≈ 71.2 µM) | MIC (Candida albicans [38]): 15.6 µg/mL (≈ 35.6 µM) | MIC (Micrococcus luteus [42]): inactive | MIC (Candida albicans [46]): inactive
Compound: O=C(NCCO)c1nc(-c2ccccc2)c2c(C(F)(F)F)cc(-c3ccccc3)nc2n1
MFC (Candida albicans [4]): 31.2 µg/mL (≈ 71.2 µM) | MBC (Staphylococcus aureus [5]): inactive | MFC ([Candida] aaseri [6]): 31.2 µg/mL (≈ 71.2 µM) | MFC (Candida albicans [8]): 62.5 µg/mL (≈ 143 µM) | MBC (Staphylococcus aureus [11]): 62.4 µg/mL (≈ 142 µM) | MBC (Escherichia coli [12]): inactive | MBC (Raoultella planticola [16]): inactive | MIC (Raoultella planticola [19]): inactive | MFC (Candida albicans [21]): 62.5 µg/mL (≈ 143 µM) | IC50 (Raoultella planticola [27]): Not Active | MFC (Candida albicans [29]): inactive | MFC (Candida albicans [31]): 62.5 µg/mL (≈ 143 µM) | MFC (Candida albicans [33]): 62.5 µg/mL (≈ 143 µM) | MFC (Candida parapsilosis [34]): inactive | MFC (Candida albicans [36]): inactive | MFC (Nakaseomyces glabratus [37]): 31.2 µg/mL (≈ 71.2 µM) | MFC (Pichia kudriavzevii [39]; MTCC 3020, 24 h): 62.5 µg/mL (≈ 143 µM) | MBC (Bacillus subtilis [40]): inactive | MFC (Candida albicans [41]): 62.5 µg/mL (≈ 143 µM) | MFC (Candida albicans [43]): inactive | MBC (Micrococcus luteus [44]): inactive | MBC (Pseudomonas aeruginosa [45]): inactive | MFC (Pichia sporocuriosa [47]): 15.6 µg/mL (≈ 35.6 µM)

MIC (Staphylococcus aureus [1]): inactive | MIC (Candida albicans [2]): 7.8 µg/mL (≈ 17.4 µM) | MIC (Candida albicans [3]; MTCC 1637, 24 h): 7.8 µg/mL (≈ 17.4 µM) | MIC (Candida albicans [7]): 7.8 µg/mL (≈ 17.4 µM) | MIC (Pichia kudriavzevii [9]): inactive | MIC (Staphylococcus aureus [10]): inactive | MIC (Nakaseomyces glabratus [13]): 31.2 µg/mL (≈ 69.6 µM) | MIC (Candida albicans [14]): 62.5 µg/mL (≈ 139 µM) | MIC (Escherichia coli [17]): inactive | MIC (Candida albicans [22]; MTCC 227, 24 h): 15.6 µg/mL (≈ 34.8 µM) | MIC (Candida albicans [23]): 15.6 µg/mL (≈ 34.8 µM) | MIC (Candida albicans [25]): 31.2 µg/mL (≈ 69.6 µM) | MIC (Candida parapsilosis [26]; MTCC 1744, 24 h): 15.6 µg/mL (≈ 34.8 µM) | MIC (Bacillus subtilis [28]): inactive | MIC (Pseudomonas aeruginosa [30]): inactive | MIC (Pichia sporocuriosa [32]): 31.2 µg/mL (≈ 69.6 µM) | MIC ([Candida] aaseri [35]): 7.8 µg/mL (≈ 17.4 µM) | MIC (Candida albicans [38]): 31.2 µg/mL (≈ 69.6 µM) | MIC (Micrococcus luteus [42]): inactive | MIC (Candida albicans [46]; MTCC 854, 24 h): 7.8 µg/mL (≈ 17.4 µM)
Compound: O=C(c1nc(-c2ccccc2)c2c(C(F)(F)F)cc(-c3ccccc3)nc2n1)N1CCCC1
MFC (Candida albicans [4]): 62.5 µg/mL (≈ 139 µM) | MFC ([Candida] aaseri [6]): 15.6 µg/mL (≈ 34.8 µM) | MFC (Candida albicans [8]): 62.5 µg/mL (≈ 139 µM) | MIC (Raoultella planticola [19]): inactive | MFC (Candida albicans [21]): 15.6 µg/mL (≈ 34.8 µM) | MFC (Candida albicans [29]; MTCC 227, 24 h): 31.2 µg/mL (≈ 69.6 µM) | MFC (Candida albicans [31]): 31.2 µg/mL (≈ 69.6 µM) | MFC (Candida albicans [33]): 62.5 µg/mL (≈ 139 µM) | MFC (Candida parapsilosis [34]; Lodderomyces parapsilosis, MTCC 1744, 24 h): 15.6 µg/mL (≈ 34.8 µM) | MFC (Candida albicans [36]; MTCC 1637, 24 h): 15.6 µg/mL (≈ 34.8 µM) | MFC (Nakaseomyces glabratus [37]): 31.2 µg/mL (≈ 69.6 µM) | MFC (Pichia kudriavzevii [39]): inactive | MFC (Candida albicans [41]): 15.6 µg/mL (≈ 34.8 µM) | MFC (Candida albicans [43]; MTCC 854, 24 h): 15.6 µg/mL (≈ 34.8 µM) | MFC (Pichia sporocuriosa [47]): 62.5 µg/mL (≈ 139 µM)
